Results on ten compounds are retold here after patent US20190175744A1, “INSULIN-INCRETIN CONJUGATES” (Merck Sharp & Dohme Corp., priority 2016, published 2019).

pEC50: −log10 of the molar value. Read-outs that look alike come from different tables or passages of the source.

One assay concerns the target T1, human IR (Homo sapiens, UniProt P06213).
T1 construct: expressed in transfected cells; host or cells: CHO cells (G418 selection)
In words: Insulin Receptor Phosphorylation (pAkt) Assay, CHO cells overexpressing human IR. The following applies: Table 7, control molecules, read-out: Insulin Receptor pAK Assay EC50 Human. In kind it is cell-based.

In a further assay the target is T2, minipig IR (Sus scrofa, UniProt F1SCL0).
T2 construct: expressed in transfected cells; host or cells: CHO cells (G418 selection)
T2 sequence (F1SCL0 28-1382): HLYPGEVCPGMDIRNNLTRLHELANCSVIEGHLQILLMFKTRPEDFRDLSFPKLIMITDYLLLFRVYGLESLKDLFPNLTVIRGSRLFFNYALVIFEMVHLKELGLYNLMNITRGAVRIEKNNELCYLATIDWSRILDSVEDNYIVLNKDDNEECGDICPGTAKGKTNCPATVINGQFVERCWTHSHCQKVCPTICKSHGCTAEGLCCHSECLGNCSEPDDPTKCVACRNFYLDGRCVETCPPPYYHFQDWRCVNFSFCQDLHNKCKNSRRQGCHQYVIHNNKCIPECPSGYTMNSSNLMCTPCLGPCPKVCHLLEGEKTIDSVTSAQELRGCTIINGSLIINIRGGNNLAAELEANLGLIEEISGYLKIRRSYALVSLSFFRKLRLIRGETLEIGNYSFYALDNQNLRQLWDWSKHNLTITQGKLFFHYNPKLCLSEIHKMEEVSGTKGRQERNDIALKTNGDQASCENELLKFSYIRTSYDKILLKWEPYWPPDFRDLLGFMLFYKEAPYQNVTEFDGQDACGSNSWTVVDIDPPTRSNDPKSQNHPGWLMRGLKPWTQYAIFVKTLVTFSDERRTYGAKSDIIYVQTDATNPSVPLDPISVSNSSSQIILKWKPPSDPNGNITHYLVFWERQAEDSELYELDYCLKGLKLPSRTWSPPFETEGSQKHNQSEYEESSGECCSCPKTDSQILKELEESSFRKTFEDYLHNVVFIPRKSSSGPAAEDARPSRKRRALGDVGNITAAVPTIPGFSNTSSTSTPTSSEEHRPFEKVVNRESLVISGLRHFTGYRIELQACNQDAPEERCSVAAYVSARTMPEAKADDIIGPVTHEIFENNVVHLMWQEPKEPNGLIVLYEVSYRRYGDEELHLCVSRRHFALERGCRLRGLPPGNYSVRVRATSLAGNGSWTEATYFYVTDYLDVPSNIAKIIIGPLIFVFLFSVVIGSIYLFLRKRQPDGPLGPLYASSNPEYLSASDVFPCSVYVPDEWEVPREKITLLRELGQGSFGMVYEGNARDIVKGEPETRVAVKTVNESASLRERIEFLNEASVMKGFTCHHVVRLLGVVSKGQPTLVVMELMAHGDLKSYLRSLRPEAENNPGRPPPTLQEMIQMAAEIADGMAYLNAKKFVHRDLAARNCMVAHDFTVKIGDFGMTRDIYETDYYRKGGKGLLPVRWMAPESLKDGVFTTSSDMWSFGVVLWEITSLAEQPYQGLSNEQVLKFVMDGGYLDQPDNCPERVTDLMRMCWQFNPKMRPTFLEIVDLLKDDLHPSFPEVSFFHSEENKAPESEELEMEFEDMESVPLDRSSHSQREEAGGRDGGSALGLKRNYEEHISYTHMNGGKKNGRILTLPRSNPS
In words: Insulin Receptor Phosphorylation (pAkt) Assay, CHO cells overexpressing minipig IR. It is filed as cell-based. The settings on record: Table 7, control molecules, read-out: Insulin Receptor pAK Assay EC50 Minipig.

The next assay has as its target T3, Insulin Receptor (Sus scrofa, UniProt F1SCL0).
T3 construct: expressed in transfected cells
Nature of the assay: Insulin Receptor Binding Assay, minipig. The following applies: Table 7, control molecules, minipig IR.

The next assay addresses human GLP1R (Homo sapiens, UniProt P43220). Nature of the assay: cAMP activity assay, cells expressing human GLP1R. It is filed as cell-based.
Another assay has as its target T4, human GCGR (Homo sapiens, UniProt P47871).
T4 construct: expressed in transfected cells; grown with Blasticidin and Hygromycin
In words: cAMP activity assay, cells expressing human GCGR.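 For all read-outs here: cAMP production read by luminescence after one hour of peptide exposure at room temperature, EC50 from logistic curve fit, native glucagon and GLP-1 as control peptides.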 In kind it is cell-based. The following applies: for GCGR/GLP1R ratio: Table 5, ratio of hGCGR EC50 to hGLP1R EC50.

Where [1] appears, read: Table 5, incretin peptides, cAMP, read-out: hGLP1R EC50.

Chain of human GLP1R (P43220 24-463): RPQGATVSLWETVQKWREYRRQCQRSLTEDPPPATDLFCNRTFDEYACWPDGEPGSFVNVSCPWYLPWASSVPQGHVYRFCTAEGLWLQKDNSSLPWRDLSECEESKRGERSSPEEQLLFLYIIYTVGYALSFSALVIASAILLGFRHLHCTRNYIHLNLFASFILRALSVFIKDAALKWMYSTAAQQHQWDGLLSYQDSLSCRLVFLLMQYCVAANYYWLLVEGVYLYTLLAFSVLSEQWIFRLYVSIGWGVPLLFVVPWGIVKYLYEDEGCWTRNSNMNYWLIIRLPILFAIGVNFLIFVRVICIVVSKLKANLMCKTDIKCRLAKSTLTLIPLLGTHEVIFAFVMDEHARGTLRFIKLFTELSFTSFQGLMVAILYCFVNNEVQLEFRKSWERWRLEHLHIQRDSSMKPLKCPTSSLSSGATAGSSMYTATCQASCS
T4 sequence (P47871 26-477): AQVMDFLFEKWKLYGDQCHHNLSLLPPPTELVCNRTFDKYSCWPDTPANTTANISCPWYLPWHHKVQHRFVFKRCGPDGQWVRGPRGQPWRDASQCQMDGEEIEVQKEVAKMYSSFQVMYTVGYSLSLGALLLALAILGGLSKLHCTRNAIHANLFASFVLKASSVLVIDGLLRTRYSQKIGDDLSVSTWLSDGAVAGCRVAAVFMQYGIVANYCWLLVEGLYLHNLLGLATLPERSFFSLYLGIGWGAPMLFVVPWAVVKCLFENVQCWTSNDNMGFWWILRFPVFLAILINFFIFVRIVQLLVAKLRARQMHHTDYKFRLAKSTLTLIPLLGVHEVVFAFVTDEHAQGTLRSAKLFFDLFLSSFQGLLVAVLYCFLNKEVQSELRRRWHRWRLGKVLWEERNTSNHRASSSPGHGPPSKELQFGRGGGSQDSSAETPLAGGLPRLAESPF
T3 sequence (F1SCL0 28-1382): as the sequence (F1SCL0 28-1382) above
T1 sequence (P06213 28-758 limits assumed): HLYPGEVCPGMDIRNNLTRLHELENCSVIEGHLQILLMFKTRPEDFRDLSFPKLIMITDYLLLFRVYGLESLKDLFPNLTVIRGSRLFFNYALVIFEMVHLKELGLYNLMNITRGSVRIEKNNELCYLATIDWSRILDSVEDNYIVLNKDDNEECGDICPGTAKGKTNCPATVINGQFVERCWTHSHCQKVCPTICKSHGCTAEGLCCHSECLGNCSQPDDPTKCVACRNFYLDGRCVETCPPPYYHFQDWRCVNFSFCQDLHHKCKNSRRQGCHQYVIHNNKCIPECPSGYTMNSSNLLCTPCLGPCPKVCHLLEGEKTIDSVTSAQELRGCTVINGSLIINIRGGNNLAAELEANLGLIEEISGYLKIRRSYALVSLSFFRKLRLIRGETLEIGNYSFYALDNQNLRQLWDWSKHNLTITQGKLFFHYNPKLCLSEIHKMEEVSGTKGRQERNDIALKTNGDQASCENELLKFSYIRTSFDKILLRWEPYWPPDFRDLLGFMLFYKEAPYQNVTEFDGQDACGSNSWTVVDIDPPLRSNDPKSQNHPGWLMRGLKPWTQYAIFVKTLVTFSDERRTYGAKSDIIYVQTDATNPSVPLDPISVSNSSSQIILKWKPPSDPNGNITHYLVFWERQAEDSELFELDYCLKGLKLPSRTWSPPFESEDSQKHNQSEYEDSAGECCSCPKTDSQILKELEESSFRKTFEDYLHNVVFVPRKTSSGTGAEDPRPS
T1 sequence (P06213 763-1382 limits assumed): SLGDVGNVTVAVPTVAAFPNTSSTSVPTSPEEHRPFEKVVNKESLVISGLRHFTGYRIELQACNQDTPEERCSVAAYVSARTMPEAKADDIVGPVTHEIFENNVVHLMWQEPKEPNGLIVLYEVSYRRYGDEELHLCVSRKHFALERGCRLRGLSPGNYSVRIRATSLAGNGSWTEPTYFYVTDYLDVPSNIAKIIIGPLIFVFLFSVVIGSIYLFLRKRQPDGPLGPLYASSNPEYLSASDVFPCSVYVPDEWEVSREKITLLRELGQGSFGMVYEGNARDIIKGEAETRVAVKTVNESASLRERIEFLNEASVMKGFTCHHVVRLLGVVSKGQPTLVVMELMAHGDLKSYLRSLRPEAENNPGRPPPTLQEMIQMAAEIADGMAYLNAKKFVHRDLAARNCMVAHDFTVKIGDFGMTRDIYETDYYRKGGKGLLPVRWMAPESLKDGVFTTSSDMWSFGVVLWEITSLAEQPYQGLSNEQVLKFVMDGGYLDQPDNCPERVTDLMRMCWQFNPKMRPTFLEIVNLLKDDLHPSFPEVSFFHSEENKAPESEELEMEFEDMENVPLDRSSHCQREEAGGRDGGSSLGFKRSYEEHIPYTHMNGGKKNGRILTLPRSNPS

On to Insulin levemir [IL], for which the figures for the pEC50 at human IR and on minipig IR were 9.29 and 9.30, respectively.
With Insulin degludec [ID], the pEC50 on Insulin Receptor is 8.07.
Regarding `CCCCCCCCCCCCCCCC(=O)N[C@@H](CCC(=O)N[C@@H](CCC(=O)NCCCC[C@H](NC(=O)[C@H](CC(=O)O)NC(=O)[C@H](CO)NC(=O)[C@@H](NC(=O)[C@H](Cc1ccccc1)NC(=O)[C@@H](NC(=O)CNC(=O)[C@H](CCC(N)=O)NC(=O)C(C)(C)NC(=O)[C@@H](N)Cc1c[nH]cn1)[C@@H](C)O)[C@@H](C)O)C(=O)N[C@@H](CO)C(=O)N[C@@H](CCCCN)C(=O)N[C@@H](Cc1ccc(O)cc1)C(=O)N[C@@H](CC(C)C)C(=O)N[C@@H](CC(=O)O)C(=O)NC(C)(C)C(=O)N[C@@H](CCCNC(=N)N)C(=O)N[C@@H](CCCNC(=N)N)C(=O)N[C@@H](C)C(=O)N[C@@H](CCC(N)=O)C(=O)N[C@@H](CC(=O)O)C(=O)N[C@@H](Cc1ccccc1)C(=O)N[C@H](C(=O)N[C@@H](CCC(N)=O)C(=O)N[C@@H](Cc1c[nH]c2ccccc12)C(=O)N[C@@H](CC(C)C)C(=O)N[C@@H](CC(C)C)C(=O)N[C@@H](CC(=O)O)C(=O)N[C@H](C(=O)N[C@@H](CCCCN=[N+]=[N-])C(=O)N[C@@H](CCC(N)=O)C(=O)O)[C@@H](C)O)C(C)C)C(=O)O)C(=O)O` [PEP6], the pEC50 at human GLP1R was 9.77; on human GCGR it was 10.15.
Turning to `CCCCCCCCCCCCCCCC(=O)N[C@@H](CCC(=O)N[C@@H](CCC(=O)NCCCC[C@H](NC(=O)[C@H](CC(=O)O)NC(=O)[C@H](CO)NC(=O)[C@@H](NC(=O)[C@H](Cc1ccccc1)NC(=O)[C@@H](NC(=O)CNC(=O)[C@H](CCC(N)=O)NC(=O)[C@@H](CO)NC(=O)[C@@H](N)Cc1c[nH]cn1)[C@@H](C)O)[C@@H](C)O)C(=O)N[C@@H](CO)C(=O)N[C@@H](CCCCN)C(=O)N[C@@H](Cc1ccc(O)cc1)C(=O)N[C@@H](CC(C)C)C(=O)N[C@@H](CC(=O)O)C(=O)N[C@@H](CCC(=O)O)C(=O)N[C@@H](CCCNC(=N)N)C(=O)N[C@@H](C)C(=O)N[C@@H](C)C(=O)N[C@@H](CCC(N)=O)C(=O)N[C@@H](CCCCN=[N+]=[N-])C(=O)N[C@@H](Cc1ccccc1)C(=O)N[C@H](C(=O)N[C@@H](CCC(N)=O)C(=O)N[C@@H](Cc1c[nH]c2ccccc12)C(=O)N[C@@H](CC(C)C)C(=O)N[C@@H](CC(C)C)C(=O)N[C@@H](CC(=O)O)C(=O)N[C@H](C(N)=O)[C@@H](C)O)C(C)C)C(=O)O)C(=O)O` [PEP1], the pEC50 at human GLP1R (setting [1]) was 10.52. In addition, the GCGR/GLP1R ratio at human GCGR is listed as 0.5.
For `CCCCCCCCCCCCCCCC(=O)N[C@@H](CCC(=O)N[C@@H](CCC(=O)NCCCC[C@H](NC(=O)[C@H](CC(=O)O)NC(=O)[C@H](CO)NC(=O)[C@@H](NC(=O)[C@H](Cc1ccccc1)NC(=O)[C@@H](NC(=O)CNC(=O)[C@H](CCC(=O)O)NC(=O)[C@@H](CO)NC(=O)[C@@H](N)Cc1c[nH]cn1)[C@@H](C)O)[C@@H](C)O)C(=O)N[C@@H](CO)C(=O)N[C@@H](CCCCN)C(=O)N[C@@H](Cc1ccc(O)cc1)C(=O)N[C@@H](CC(C)C)C(=O)N[C@@H](CC(=O)O)C(=O)N[C@@H](CCC(=O)O)C(=O)N[C@@H](CCCNC(=N)N)C(=O)N[C@@H](C)C(=O)N[C@@H](C)C(=O)N[C@@H](CCC(N)=O)C(=O)N[C@@H](CC(=O)O)C(=O)N[C@@H](Cc1ccccc1)C(=O)N[C@H](C(=O)N[C@@H](CCCCN=[N+]=[N-])C(=O)N[C@@H](Cc1c[nH]c2ccccc12)C(=O)N[C@@H](CC(C)C)C(=O)N[C@@H](CC(C)C)C(=O)N[C@@H](CC(=O)O)C(=O)N[C@H](C(N)=O)[C@@H](C)O)C(C)C)C(=O)O)C(=O)O` [PEP75], the results for the pEC50 on human GLP1R and at human GCGR were 10.15 and below 8.30, respectively. At human GCGR, the GCGR/GLP1R ratio is above 72.
The corresponding values for `CC(C)C[C@H](NC(=O)[C@H](Cc1ccc(O)cc1)NC(=O)[C@H](CCCCN)NC(=O)[C@H](CO)NC(=O)[C@H](Cc1ccc(O)cc1)NC(=O)[C@H](CC(=O)O)NC(=O)[C@H](CO)NC(=O)[C@@H](NC(=O)[C@H](Cc1ccccc1)NC(=O)[C@@H](NC(=O)CNC(=O)[C@H](CCC(N)=O)NC(=O)[C@@H](CO)NC(=O)[C@@H](N)Cc1c[nH]cn1)[C@@H](C)O)[C@@H](C)O)C(=O)N[C@@H](CC(=O)O)C(=O)N[C@@H](CCC(=O)O)C(=O)N[C@@H](CCCNC(=N)N)C(=O)N[C@@H](C)C(=O)N[C@@H](C)C(=O)N[C@@H](CCC(N)=O)C(=O)N[C@@H](CCCCNC(=O)COCCOCCNC(=O)COCCOCCNC(=O)CC[C@H](NC(=O)CCCCCCCCCCCCCCCN=[N+]=[N-])C(=O)O)C(=O)N[C@@H](Cc1ccccc1)C(=O)N[C@H](C(=O)N[C@@H](CCC(N)=O)C(=O)N[C@@H](Cc1c[nH]c2ccccc12)C(=O)N[C@@H](CC(C)C)C(=O)N[C@@H](CC(C)C)C(=O)N[C@@H](CC(=O)O)C(=O)N[C@H](C(N)=O)[C@@H](C)O)C(C)C` [PEP27] are 10.22, 9.41 and 6.5.
Consider `CCCCCCCCCCCCCCCC(=O)N[C@@H](CCC(=O)N[C@@H](CCC(=O)NCCCC[C@H](NC(=O)[C@H](CC(=O)O)NC(=O)[C@H](CO)NC(=O)[C@@H](NC(=O)[C@H](Cc1ccccc1)NC(=O)[C@@H](NC(=O)CNC(=O)[C@H](CCC(N)=O)NC(=O)[C@@H](CO)NC(=O)[C@@H](N)Cc1c[nH]cn1)[C@@H](C)O)[C@@H](C)O)C(=O)N[C@@H](CO)C(=O)N[C@@H](CCCCN)C(=O)N[C@@H](Cc1ccc(O)cc1)C(=O)N[C@@H](CC(C)C)C(=O)N[C@@H](CC(=O)O)C(=O)N[C@@H](CO)C(=O)N[C@@H](CCCNC(=N)N)C(=O)N[C@@H](CCCNC(=N)N)C(=O)N[C@@H](C)C(=O)N[C@@H](Cc1c[nH]cn1)C(=O)N[C@@H](CC(=O)O)C(=O)N[C@@H](Cc1ccccc1)C(=O)N[C@H](C(=O)N[C@@H](CCCCN=[N+]=[N-])C(=O)N[C@@H](Cc1c[nH]c2ccccc12)C(=O)N[C@@H](CC(C)C)C(=O)N[C@@H](CC(C)C)C(=O)N[C@@H](CC(N)=O)C(=O)N[C@H](C(N)=O)[C@@H](C)O)C(C)C)C(=O)O)C(=O)O` [PEP13], for which the pEC50 at human GLP1R is 10.00; on human GCGR, 10.40. Besides, the GCGR/GLP1R ratio at human GCGR is reported as 0.4.
For the compound `CC(C)C[C@H](NC(=O)[C@H](Cc1c[nH]c2ccccc12)NC(=O)[C@H](CCC(N)=O)NC(=O)[C@@H](NC(=O)[C@H](Cc1ccccc1)NC(=O)[C@H](CC(=O)O)NC(=O)[C@H](CCC(N)=O)NC(=O)[C@H](C)NC(=O)[C@H](C)NC(=O)[C@H](CCCNC(=N)N)NC(=O)C(C)(C)NC(=O)[C@H](CC(=O)O)NC(=O)[C@H](CC(C)C)NC(=O)[C@H](Cc1ccc(O)cc1)NC(=O)[C@H](CCCCN)NC(=O)[C@H](CO)NC(=O)[C@H](Cc1ccc(O)cc1)NC(=O)[C@H](CC(=O)O)NC(=O)[C@H](CO)NC(=O)[C@@H](NC(=O)[C@H](Cc1ccccc1)NC(=O)[C@@H](NC(=O)CNC(=O)[C@H](CCC(N)=O)NC(=O)C(C)(C)NC(=O)[C@@H](N)Cc1c[nH]cn1)[C@@H](C)O)[C@@H](C)O)C(C)C)C(=O)N[C@@H](CC(C)C)C(=O)N[C@@H](CC(=O)O)C(=O)N[C@H](C(=O)N[C@@H](CCCCN)C(=O)N[C@@H](CCCCN=[N+]=[N-])C(N)=O)[C@@H](C)O` [PEP18], the pEC50 is 10.52 on human GLP1R (setting [1]) and 9.68 at human GCGR (Table 5, incretin peptides, cAMP, read-out: hGCGR_EC50). In addition, the GCGR/GLP1R ratio on human GCGR is recorded as 6.7.
On to `CCCCCCCCCCCCCCCC(=O)N[C@@H](CCC(=O)N[C@@H](CCC(=O)NCCCC[C@H](NC(=O)[C@H](CC(=O)O)NC(=O)[C@H](CO)NC(=O)[C@@H](NC(=O)[C@H](Cc1ccccc1)NC(=O)[C@@H](NC(=O)CNC(=O)[C@H](CCC(N)=O)NC(=O)[C@@H](CO)NC(=O)[C@@H](N)Cc1c[nH]cn1)[C@@H](C)O)[C@@H](C)O)C(=O)N[C@@H](CO)C(=O)N[C@@H](CCCCN)C(=O)N[C@@H](Cc1ccc(O)cc1)C(=O)N[C@@H](CC(C)C)C(=O)N[C@@H](CC(=O)O)C(=O)N[C@@H](CCC(=O)O)C(=O)N[C@@H](CCCNC(=N)N)C(=O)N[C@@H](C)C(=O)N[C@@H](C)C(=O)N[C@@H](CCCCNC(=O)COCCOCCNC(=O)CCCCN=[N+]=[N-])C(=O)N[C@@H](CC(=O)O)C(=O)N[C@@H](Cc1ccccc1)C(=O)N[C@H](C(=O)N[C@@H](CCC(N)=O)C(=O)N[C@@H](Cc1c[nH]c2ccccc12)C(=O)N[C@@H](CC(C)C)C(=O)N[C@@H](CC(C)C)C(=O)N[C@@H](CC(=O)O)C(=O)N[C@H](C(N)=O)[C@@H](C)O)C(C)C)C(=O)O)C(=O)O` [PEP16], for which the pEC50 at human GLP1R (setting [1]) was 10.22. Also, at human GCGR, the pEC50 was 10.30 and the GCGR/GLP1R ratio was found to be 0.8.
`CCCCCCCCCCCCCCCC(=O)N[C@@H](CCC(=O)N[C@@H](CCC(=O)NCCCC[C@H](NC(=O)[C@H](CC(=O)O)NC(=O)[C@H](CO)NC(=O)[C@@H](NC(=O)[C@H](Cc1ccccc1)NC(=O)[C@@H](NC(=O)CNC(=O)[C@H](CCC(N)=O)NC(=O)C(C)(C)NC(=O)[C@@H](N)Cc1c[nH]cn1)[C@@H](C)O)[C@@H](C)O)C(=O)N[C@@H](CO)C(=O)N[C@@H](CCCCN)C(=O)N[C@@H](Cc1ccc(O)cc1)C(=O)N[C@@H](CC(C)C)C(=O)N[C@@H](CC(=O)O)C(=O)NC(C)(C)C(=O)N[C@@H](CCCNC(=N)N)C(=O)N[C@@H](C)C(=O)N[C@@H](C)C(=O)N[C@@H](CCC(N)=O)C(=O)N[C@@H](CC(=O)O)C(=O)N[C@@H](Cc1ccccc1)C(=O)N[C@H](C(=O)N[C@@H](CCC(N)=O)C(=O)N[C@@H](Cc1c[nH]c2ccccc12)C(=O)N[C@@H](CC(C)C)C(=O)N[C@@H](CC(C)C)C(=O)N[C@@H](CC(=O)O)C(=O)N[C@H](C(=O)N[C@@H](CCCCN)C(=O)N[C@@H](CCCCNC(=O)COCCOCCNC(=O)CCCCN=[N+]=[N-])C(N)=O)[C@@H](C)O)C(C)C)C(=O)O)C(=O)O` [PEP20]: at human GLP1R, the pEC50 is 10.30. Further, on human GCGR, the pEC50 was 10.00 and the GCGR/GLP1R ratio is reported as 2.0.
